These compounds were tested against T1, androgen receptor (Homo sapiens, UniProt P10275) (assay: AR Antagonist Cell Assay (MMTV-luciferase reporter, DHT-stimulated)). Conditions: MDA-MB453-MMTV clone 54-19 cells; antagonism of 100 pM DHT, 17 hr, luciferase readout.
T1 sequence (P10275 1-920 Q868H): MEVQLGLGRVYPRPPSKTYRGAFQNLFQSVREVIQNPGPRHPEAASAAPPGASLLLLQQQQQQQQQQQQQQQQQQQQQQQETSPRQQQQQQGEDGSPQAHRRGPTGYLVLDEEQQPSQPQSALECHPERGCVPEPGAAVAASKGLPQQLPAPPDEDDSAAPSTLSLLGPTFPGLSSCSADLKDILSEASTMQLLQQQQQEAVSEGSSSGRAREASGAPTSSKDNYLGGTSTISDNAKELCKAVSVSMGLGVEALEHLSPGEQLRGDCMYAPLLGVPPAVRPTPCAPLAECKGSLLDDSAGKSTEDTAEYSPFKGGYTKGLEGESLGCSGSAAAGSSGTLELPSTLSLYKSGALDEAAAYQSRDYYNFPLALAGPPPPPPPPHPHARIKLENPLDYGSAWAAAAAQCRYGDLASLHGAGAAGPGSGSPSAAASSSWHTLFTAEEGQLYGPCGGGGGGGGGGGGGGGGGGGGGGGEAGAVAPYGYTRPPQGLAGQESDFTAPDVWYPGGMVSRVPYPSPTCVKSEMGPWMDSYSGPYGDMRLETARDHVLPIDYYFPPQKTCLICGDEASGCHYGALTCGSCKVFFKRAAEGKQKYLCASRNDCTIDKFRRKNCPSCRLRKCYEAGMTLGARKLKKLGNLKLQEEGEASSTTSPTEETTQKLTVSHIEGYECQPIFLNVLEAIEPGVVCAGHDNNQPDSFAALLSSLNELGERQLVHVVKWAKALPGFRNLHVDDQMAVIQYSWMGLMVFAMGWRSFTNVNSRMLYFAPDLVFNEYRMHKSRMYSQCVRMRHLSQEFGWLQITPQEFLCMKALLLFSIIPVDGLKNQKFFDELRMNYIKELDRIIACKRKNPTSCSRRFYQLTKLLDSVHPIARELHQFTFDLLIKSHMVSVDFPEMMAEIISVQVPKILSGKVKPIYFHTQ
Assay type: cell-based
Summary of the method: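 MDA-MB453 cells stably carrying MMTV-ARE-firefly luciferase, in 1% charcoal-treated serum, preincubated 30 min with compound (10 uM or 1 uM) then stimulated with 100 pM DHT for 17 h at 37° C. Luminescence read; result as % inhibition of DHT fold induction.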

Row | Compound | IC50 [µM]
1 | O=c1cc(C(F)(F)F)c2cc(Cc3ccc(S(=O)(=O)NCc4ccccc4OC(F)F)cc3)ccc2o1 [Example 199, N-(2-Difluoromethoxybenzyl)-4-(2-oxo-4-trifluoromethyl-2H-chromen-6-ylmethyl)benzenesulfonamide] | 4.73
2 | CN(CCC#N)S(=O)(=O)c1ccc(Cc2ccc3[nH]c(=O)cc(C(F)(F)F)c3c2)cc1 [Example 10, N-(2-Cyanoethyl)-N-methyl-4-(2-oxo-4-trifluoromethyl-1,2-dihydroquinolin-6-ylmethyl)benzenesulfonamide] | > 10
3 | O=c1cc(C(F)(F)F)c2cc(Cc3ccc(S(=O)(=O)Nc4ccccc4)cc3)ccc2o1 [Example 113, 4-(2-Oxo-4-trifluoromethyl-2H-chromen-6-ylmethyl)-N-phenylbenzenesulfonamide] | 0.72
4 | O=c1cc(C(F)(F)F)c2cc(Cc3ccc(S(=O)(=O)NCCCn4ccnc4)cc3)ccc2[nH]1 [Example 60, N-(3-Imidazol-1-ylpropyl)-4-(2-oxo-4-trifluoromethyl-1,2-dihydroquinolin-6-ylmethyl)-benzenesulfonamide] | 9.16
5 | O=c1cc(C(F)(F)F)c2cc(Cc3ccc(S(=O)(=O)Nc4cccc(OCc5ccccc5)c4)cc3)ccc2o1 [Example 152, N-(3-Benzyloxyphenyl)-4-(2-oxo-4-trifluoromethyl-2H-chromen-6-ylmethyl)-benzenesulfonamide] | 0.77
6 | O=c1cc(C(F)(F)F)c2cc(Cc3ccc(S(=O)(=O)NCC(c4ccccc4)c4ccccc4)cc3)ccc2o1 [Example 206, N-(2,2-Diphenylethyl)-4-(2-oxo-4-trifluoromethyl-2H-chromen-6-ylmethyl)benzene-sulfonamide] | 5.74
7 | O=c1cc(C(F)(F)F)c2cc(Cc3ccc(S(=O)(=O)NCCCn4ccnc4)cc3)ccc2o1 [Example 174, N-(3-Imidazol-1-ylpropyl)-4-(2-oxo-4-triftuoromethyl-2H-chromen-6-ylmethyl)benzenesulfonamide] | 5.5
8 | CCCCN(C)S(=O)(=O)c1ccc(Cc2ccc3oc(=O)cc(C(F)(F)F)c3c2)cc1 [Example 107, N-Butyl-N-methyl-4-(2-oxo-4-trifluoromethyl-2H-chromen-6-ylmethyl)benzenesulfonamide] | 3.45
9 | CC(C)N(C)S(=O)(=O)c1ccc(Cc2ccc3[nH]c(=O)cc(C(F)(F)F)c3c2)cc1 [Example 7, N-Isopropyl-N-methyl-4-(2-oxo-4-trifluoromethyl-1,2-dihydroquinolin-6-ylmethyl)benzenesulfonamide] | > 10
10 | O=c1cc(C(F)(F)F)c2cc(Cc3ccc(S(=O)(=O)NCCc4ccccc4)cc3)ccc2[nH]1 [Example 57, 4-(2-Oxo-4-trifluoromethyl-1,2-dihydroquinolin-6-ylmethyl)-N-phenethylbenzenesulfonamide] | > 10
11 | Cc1ccc(F)cc1CNS(=O)(=O)c1ccc(Cc2ccc3[nH]c(=O)cc(C(F)(F)F)c3c2)cc1 [Example 67, N-(5-Fluoro-2-methylbenzyl)-4-(2-oxo-4-trifluoromethyl-1,2-dihydroquinolin-6-ylmethyl)-benzenesulfonamide] | 8.23
12 | O=c1cc(C(F)(F)F)c2cc(Cc3ccc(S(=O)(=O)Nc4cccc(CO)c4)cc3)ccc2o1 [Example 122, N-(3-Hydroxymethylphenyl)-4-(2-oxo-4-trifluoromethyl-2H-chromen-6-ylmethyl)-benzenesulfonamide] | 1.83
13 | O=c1cc(C(F)(F)F)c2cc(Cc3ccc(S(=O)(=O)NC4CCN(Cc5ccccc5)C4)cc3)ccc2[nH]1 (stereo not drawn) [Example 86] | 2.28
14 | O=c1cc(C(F)(F)F)c2cc(Cc3ccc(S(=O)(=O)N(CCO)Cc4ccccc4)cc3)ccc2[nH]1 [Example 9, N-Benzyl-N-(2-hydroxyethyl)-4-(2-oxo-4-trifluoromethyl-1,2-dihydroquinolin-6-ylmethyl)benzenesulfonamide] | > 10
15 | O=c1cc(C(F)(F)F)c2cc(Cc3ccc(S(=O)(=O)Nc4cccc(OC(F)F)c4)cc3)ccc2o1 [Example 143, N-(3-Difluoromethoxyphenyl)-4-(2-oxo-4-trifluoromethyl-2H-chromen-6-ylmethyl)-benzenesulfonamide] | 2.81
16 | COc1cc(NS(=O)(=O)c2ccc(Cc3ccc4oc(=O)cc(C(F)(F)F)c4c3)cc2)cc(OC)c1 [Example 141, N-(3,5-Dimethoxyphenyl)-4-(2-oxo-4-trifluoromethyl-2H-chromen-6-ylmethyl)-benzenesulfonamide] | 3.24
17 | O=c1cc(C(F)(F)F)c2cc(Cc3ccc(S(=O)(=O)NC4CCC(O)CC4)cc3)ccc2o1 (stereo not drawn) [Example 193, N-(4-Hydroxycyclohexyl)-4-(2-oxo-4-trifluoromethyl-2H-chromen-6-ylmethyl)benzenesulfonamide] | 9.11
18 | O=c1cc(C(F)(F)F)c2cc(Cc3ccc(S(=O)(=O)Nc4cccc5cccnc45)cc3)ccc2o1 [Example 137, 4-(2-Oxo-4-trifluoromethyl-2H-chromen-6-ylmethyl)-N-quinolin-8-ylbenzenesulfonamide] | 7.08
19 | O=c1cc(C(F)(F)F)c2cc(Cc3ccc(S(=O)(=O)Nc4cccc5cccnc45)cc3)ccc2[nH]1 [Example 30, 4-(2-Oxo-4-trifluoromethyl-1,2-dihydroquinolin-6-ylmethyl)-N-quinolin-8-ylbenzenesulfonamide] | > 10
20 | Cc1ccc2cc(NS(=O)(=O)c3ccc(Cc4ccc5oc(=O)cc(C(F)(F)F)c5c4)cc3)ccc2n1 [Example 139, N-(2-Methylquinolin-6-yl)-4-(2-oxo-4-trifluoromethyl-2H-chromen-6-ylmethyl)-benzenesulfonamide] | 2.03
21 | O=c1cc(C(F)(F)F)c2cc(Cc3ccc(S(=O)(=O)Nc4cccc5c4OC(F)(F)C(F)(F)O5)cc3)ccc2[nH]1 [Example 47, 4-(2-Oxo-4-trifluoromethyl-1,2-dihydroquinolin-6-ylmethyl)-N-(2,2,3,3-tetrafluoro-2,3-dihydrobenzo[1,4]dioxin-5-yl)-benzenesufonamide] | > 10
22 | CC(C)N(c1ccccc1)c1ccc(NS(=O)(=O)c2ccc(Cc3ccc4[nH]c(=O)cc(C(F)(F)F)c4c3)cc2)cc1 [Example 48, N-[4-(Isopropylphenylamino)-phenyl]-4-(2-oxo-4-trifluoromethyl-1,2-dihydroquinolin-6-ylmethyl)-benzenesulfonamide] | 4.97
23 | O=c1cc(C(F)(F)F)c2cc(Cc3ccc(S(=O)(=O)NC[C@H](O)CO)cc3)ccc2o1 [Example 160, N-(2,3-Dihydroxypropyl)-4-(2-oxo-4-trifluoromethyl-2H-chromen-6-ylmethyl)benzenesulfonamide] | > 10
24 | CCc1cccc(NS(=O)(=O)c2ccc(Cc3ccc4oc(=O)cc(C(F)(F)F)c4c3)cc2)c1 [Example 119, N-(3-Ethylphenyl)-4-(2-oxo-4-trifluoromethyl-2H-chromen-6-ylmethyl)-benzenesulfonamide] | 3.42
25 | O=c1cc(C(F)(F)F)c2cc(Cc3ccc(S(=O)(=O)NCCOc4ccccc4)cc3)ccc2o1 [Example 181, 4-(2-Oxo-4-trifluoromethyl-2H-chromen-6-ylmethyl)-N-(2-phenoxyethyl)-benzenesulfonamide] | 6.96
26 | O=c1cc(C(F)(F)F)c2cc(Cc3ccc(S(=O)(=O)NCC4CCCCC4)cc3)ccc2o1 [Example 165, N-Cyclohexylmethyl-4-(2-oxo-4-trifluoromethyl-2H-chromen-6-ylmethyl)benzene-sulfonamide] | ~10
27 | O=c1cc(C(F)(F)F)c2cc(Cc3ccc(S(=O)(=O)Nc4cccc(OC(F)(F)F)c4)cc3)ccc2[nH]1 [Example 42, 4-(2-Oxo-4-trifluoromethyl-1,2-dihydroquinolin-6-ylmethyl)-N-(3-trifiuoromethoxyphenyl)-benzenesulfonamide] | > 10
28 | O=c1cc(C(F)(F)F)c2cc(Cc3ccc(S(=O)(=O)Nc4cccc(Cc5ccccc5)c4)cc3)ccc2o1 [Example 149, N-(3-Benzylphenyl)-4-(2-oxo-4-trifluoromethyl-2H-chromen-6-ylmethyl)benzenesulfonamide] | 4.74
29 | CC(CNS(=O)(=O)c1ccc(Cc2ccc3oc(=O)cc(C(F)(F)F)c3c2)cc1)c1ccccc1 (stereo not drawn) [Example 180, 4-(2-Oxo-4-trifluoromethyl-2H-chromen-6-ylmethyl)-N-(2-phenylpropyl)-benzenesulfonamide] | 2.06
30 | CSc1n[nH]c(NS(=O)(=O)c2ccc(Cc3ccc4[nH]c(=O)cc(C(F)(F)F)c4c3)cc2)c1C#N [Example 32, N-(4-Cyano-5-methylsulfanyl-2H-pyrazol-3-yl)-4-(2-oxo-4-trifluoromethyl-1,2-dihydroquinolin-6-ylmethyl)-benzenesulfonamide] | 8.02
